Eleven compounds from patent US11111237B2, “Bicyclic compound and use thereof” (SK BIOPHARMACEUTICALS CO., LTD., priority 2019, dated 2021) can be followed below.

The IC50 is the midpoint of a concentration-inhibition curve. A high value points to lower potency.

The target of this experiment is PRMT5-MEP50 enzyme complex (Homo sapiens (Human), UniProt O14744). Nature of the experiment: PRMT5 enzyme activity in vitro assay (methylation of histone H4R3, ELISA absorbance at 450 nm). The experiment is classed as biochemical. Conditions: SAM, histone H4 peptide, room temperature 2 hours, 8 points from 10 μM to 0.128 nM. The essentials: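 IC50 was derived from ELISA absorbance at 450 nm, using primary and HRP antibodies against H4R3 methylation on immobilised histone H4 peptide (residues 1-20). Compounds (10 μM to 0.128 nM, 8 points, 1:5) were incubated 2 h at room temperature with the PRMT5-MEP50 complex and SAM, diluted to 5 μg/mL and 2 μM respectively.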
Chain of PRMT5-MEP50 enzyme complex (O14744 2-637): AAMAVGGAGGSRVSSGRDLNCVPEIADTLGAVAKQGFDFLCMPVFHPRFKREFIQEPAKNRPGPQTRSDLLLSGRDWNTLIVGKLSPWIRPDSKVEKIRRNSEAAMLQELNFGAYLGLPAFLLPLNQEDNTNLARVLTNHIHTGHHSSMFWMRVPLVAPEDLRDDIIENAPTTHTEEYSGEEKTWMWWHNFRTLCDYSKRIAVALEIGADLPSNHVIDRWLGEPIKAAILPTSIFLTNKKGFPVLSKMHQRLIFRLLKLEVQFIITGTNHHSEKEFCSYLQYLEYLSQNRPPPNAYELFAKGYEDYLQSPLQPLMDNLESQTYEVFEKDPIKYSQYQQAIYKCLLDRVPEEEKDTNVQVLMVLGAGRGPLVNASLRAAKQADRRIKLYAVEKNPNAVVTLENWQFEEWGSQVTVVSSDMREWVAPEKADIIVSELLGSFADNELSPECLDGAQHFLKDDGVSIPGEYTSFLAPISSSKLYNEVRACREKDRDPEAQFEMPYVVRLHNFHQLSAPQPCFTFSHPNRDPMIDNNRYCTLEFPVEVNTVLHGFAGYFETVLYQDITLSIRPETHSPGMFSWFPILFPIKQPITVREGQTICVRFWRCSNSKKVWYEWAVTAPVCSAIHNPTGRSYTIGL
Chain of PRMT5-MEP50 enzyme complex (Q9BQA1 2-342 partner): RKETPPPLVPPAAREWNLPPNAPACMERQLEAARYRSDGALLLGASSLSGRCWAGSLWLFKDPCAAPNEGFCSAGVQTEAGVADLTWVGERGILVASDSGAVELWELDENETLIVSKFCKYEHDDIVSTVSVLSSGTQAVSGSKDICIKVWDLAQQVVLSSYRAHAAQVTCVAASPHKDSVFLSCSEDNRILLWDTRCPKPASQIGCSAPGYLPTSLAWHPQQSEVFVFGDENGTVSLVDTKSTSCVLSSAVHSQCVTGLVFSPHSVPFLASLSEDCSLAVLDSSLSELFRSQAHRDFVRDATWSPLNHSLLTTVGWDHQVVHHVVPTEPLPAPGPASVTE
In general terms: In an ELISA, binding on a coated surface is turned into a signal by an enzyme label.
`CCN1CC[C@@H](Oc2ccc3c(c2)OCCN(C[C@H](O)CN2CCc4ccccc4C2)C3=O)C1` [Example 99, 4-[(2R)-3-(3,4-dihydro-1H-isoquinolin-2-yl)-2-hydroxy-propyl]-8-[(3R)-1-ethylpyrrolidin-3-yl]oxy-2,3-dihydro-1,4-benzoxazepin-5-one]: the IC50 is 100 to 1000 nM. For `CC(C)N1CCC[C@H]1COc1ccc2c(c1)OCCN(C[C@H](O)CN1CCc3ccccc3C1)C2=O` [Example 101, 4-[(2R)-3-(3,4-dihydro-1H-isoquinolin-2-yl)-2-hydroxy-propyl]-8-[[(2S)-1-isopropylpyrrolidin-2-yl]methoxy]-2,3-dihydro-1,4-benzoxazepin-5-one] the value was 100 to 1000 nM; for `CN1CCC(COc2ccc3c(c2)OCCN(C[C@H](O)CN2CCc4ccccc4C2)C3=O)CC1` [Example 102, 4-[(2R)-3-(3,4-dihydro-1H-isoquinolin-2-yl)-2-hydroxy-propyl]-8-[(1-methyl-4-piperidyl)methoxy]-2,3-dihydro-1,4-benzoxazepin-5-one], 100 to 1000 nM; for `CCN1CCC(COc2ccc3c(c2)OCCN(C[C@H](O)CN2CCc4ccccc4C2)C3=O)CC1` [Example 103, 4-[(2R)-3-(3,4-dihydro-1H-isoquinolin-2-yl)-2-hydroxy-propyl]-8-[(1-ethyl-4-piperidyl)methoxy]-2,3-dihydro-1,4-benzoxazepin-5-one], 100 to 1000 nM. Take `CN1CCOC(COc2ccc3c(c2)OCCN(C[C@H](O)CN2CCc4ccccc4C2)C3=O)C1` (stereo partly drawn) [Example 104, 4-[(2R)-3-(3,4-dihydro-1H-isoquinolin-2-yl)-2-hydroxy-propyl]-8-[(4-methylmorpholin-2-yl)methoxy]-2,3-dihydro-1,4-benzoxazepin-5-one]: the IC50 fell in the range of 100 to 1000 nM. For `CCN1CCOC(COc2ccc3c(c2)OCCN(C[C@H](O)CN2CCc4ccccc4C2)C3=O)C1` (stereo partly drawn) [Example 105, 4-[(2R)-3-(3,4-dihydro-1H-isoquinolin-2-yl)-2-hydroxy-propyl]-8-[(4-ethylmorpholin-2-yl)methoxy]-2,3-dihydro-1,4-benzoxazepin-5-one] the value was 100 to 1000 nM.

In the case of `CN1CCC(COc2ccc3c(c2)OCCN(C[C@H](O)CN2CCc4ccccc4C2)C3=O)C1` (stereo partly drawn) [Example 106, 4-[(2R)-3-(3,4-dihydro-1H-isoquinolin-2-yl)-2-hydroxy-propyl]-8-[(1-methylpyrrolidin-3-yl)methoxy]-2,3-dihydro-1,4-benzoxazepin-5-one], the IC50 lay in the range of 100 to 1000 nM.

`CN1CCCC(COc2ccc3c(c2)OCCN(C[C@H](O)CN2CCc4ccccc4C2)C3=O)C1` (stereo partly drawn) [Example 107, 4-[(2R)-3-(3,4-dihydro-1H-isoquinolin-2-yl)-2-hydroxy-propyl]-8-[(1-methyl-3-piperidyl)methoxy]-2,3-dihydro-1,4-benzoxazepin-5-one]: the IC50 lay in the range of 1 to 100 nM. For `O=C1c2c(F)cc(CN3CCOCC3)cc2OCCN1C[C@H](O)CN1CCc2ccccc2C1` [Example 108, 4-[(2R)-3-(3,4-dihydro-1H-isoquinolin-2-yl)-2-hydroxy-propyl]-6-fluoro-8-(morpholinomethyl)-2,3-dihydro-1,4-benzoxazepin-5-one] the value was 1000 to 10000 nM. For `CN1CCC(Oc2cc(F)c3c(c2)OCCN(C[C@H](O)CN2CCc4ccccc4C2)C3=O)CC1` [Example 109, 4-[(2R)-3-(3,4-dihydro-1H-isoquinolin-2-yl)-2-hydroxy-propyl]-6-fluoro-8-[(1-methyl-4-piperidyl)oxy]-2,3-dihydro-1,4-benzoxazepin-5-one] the value was 100 to 1000 nM; for `CCN1CCC(Oc2ccc3c(c2)OC(C)(C)CN(C[C@H](O)CN2CCc4ccccc4C2)C3=O)CC1` [Example 110, 4-[(2R)-3-(3,4-dihydro-1H-isoquinolin-2-yl)-2-hydroxy-propyl]-8-[(1-ethyl-4-piperidyl)oxy]-2,2-dimethyl-3H-1,4-benzoxazepin-5-one], 100 to 1000 nM.
